Test results from patent US9498506B2, “Pharmaceutical composition for preventing or treating thyroid diseases, comprising extract from Lonicera caerulea L. var. edulis fruits as active ingredient” (H&K BIOSCIENCE CO., LTD., priority 2013, dated 2016).
Marks after values point to notes of the source that are not given here.

What was measured:
Type in all cases: in vivo
[1] = system: LT4-induced hyperthyroidism rat; experiment: Change in weight, LT4-induced hyperthyroidism animal model; conditions: LT4-induced hyperthyroidism rats
Protocol: (§1) Total number of 150 male SPF. VAF Outbred-Rats, Crl:CD [Sprague-Dawley, SD] rats (6 weeks old, OrientBio, Seungnam, Korea) were prepared and refined for 8 days in a laboratory environment. After that, rats with consistent weight (average: 233.70 g±10.47 g, 217 g to 252 g) were selected, and 8 rats per group (total of 56 rats) were used for the experiment. In the present invention, all the experimental animals were treated according to animal ethics of the animal experimentation ethics committee of Daegu Haany University. The experiment was conducted after pre-approval.
(§2) Based on conventional methods known in the art (Clin Exp Pharmacol Physiol. 2007 November; 34(11):1217-9, etc.), a hyperthyroidism animal model was prepared by administering LT4 (levothyroxine). Specifically, hyperthyroidism was induced by dissolving 3 mg of LT4 into 10 ml of saline solution and subcutaneously injecting the capacity of 1 ml/kg into dorsal neck of the animal model once everyday for a period of 27 days. On the other hand, in the intact control group, the same amount of saline solution instead of LT4 was administered for the same period in the same manner as described above (FIG. 1).
(§3) Targeting the hyperthyroidism animal prepared as above, 500, 250, and 125 mg/kg of the extract from Lonicera caerulea L. car. Edulis fruits (BH) prepared in Example 1-1 were dissolved in sterilized distilled water, respectively, and the capacity of 5 ml/kg was orally administered forcibly once a day from Day 12 to Day 15 since the treatment.
(§4) On the other hand, Lonicerae Flos aqueous hot water extract (LF), an experimental group, was also dissolved in sterilized distilled water, and the capacity of 250 mg/kg was orally administered for the same period in the same manner as described above. 10 mg/kg of PTU was dissolved in saline solution, and the capacity of 1 ml/kg was intraperitoneally administered for the same period in the same manner as described above (Table 1, FIG. 1).
Next, the effects on treating hyperthyroidism was confirmed by observing the weight change, thyroid weight change, content change in blood thyroid hormone (TSH, T3, and T4), and histopathological change in the thyroid (the total thickness of thyroid in which the cells have been cut, average diameter of thyroid follicle, and thickness of thyroid epithelium) of the rats for each group.

[2] = system: LT4-induced hyperthyroidism rat; experiment: Change in the weight of thyroid, LT4-induced hyperthyroidism animal model; conditions: LT4-induced hyperthyroidism rats; 10 mg/kg intraperitoneally
Protocol: as §1
Based on conventional methods known in the art (Clin Exp Pharmacol Physiol. 2007 November; 34(11):1217-9, etc.), a hyperthyroidism animal model was prepared by administering LT4 (levothyroxine). […]
On the final day of sacrifice, left thyroids of all the experimental animals were extracted and isolated and next, the weight was measured and designated as the absolute weight. In order to minimize the secondary change accompanied with the change in weight, relative thyroid gland weight (Absolute […] weight/body weight at sacrifice ×100), which was the ratio of the absolute weight of the thyroid based on body weight, was calculated.

[3] = system: LT4-induced hyperthyroidism rat; experiment: Thyroid hormone content in blood (radioimmunoassay), LT4-induced hyperthyroidism animal model; conditions: LT4-induced hyperthyroidism rats; 10 mg/kg intraperitoneally
Protocol: as §1, §2, §3
On the other hand, Lonicerae Flos aqueous hot water extract (LF), an experimental group, was also dissolved in sterilized distilled water, and the capacity of 250 mg/kg was orally administered for the same period in the same manner as described above. […]
The TSH, T3, and T4 contents in blood were measured in the units including ng/ml or μg/ml by Gamma count Cobra II (Packard Co., IL, USA) utilizing Coat A count Total TSH, T3 or T4 kit (DPC, CA, USA), respectively, based on Radioimmunoassay method (Toxicol Sci 69(1): 79-91, 2002).

[4] = system: LT4-induced hyperthyroidism rat; experiment: Histopathological observation of thyroid, LT4-induced hyperthyroidism animal model; conditions: LT4-induced hyperthyroidism rats; 10 mg/kg intraperitoneally
Protocol: as §1, §2, §3
as §4, with “1). […]” for “1).”

[5] = system: PTU-induced hypothyroidism rat; experiment: Change in weight, PTU-induced hypothyroidism animal model; conditions: PTU-induced hypothyroidism rats
Protocol: (§5) Experimental animals are the same as described in Experimental Example 3.
(§6) Based on conventional methods known in the art (Neuro Endocrinol Lett. 1999; 20:311-14; Toxicol Sci. 2002; 69:79-91; Korean J Orient Physiol Pathol. 2010; 24:630-7), a hypothyroidism animal model was prepared by administering Propylthiouracil (PTU). Specifically, hypothyroidism was induced by dissolving 100 mg of PTU into 10 ml of saline solution and subcutaneously injecting the capacity of 1 ml/kg into dorsal neck of the animal model once everyday for a period of 28 days. On the other hand, in the intact control group, the same amount of saline solution instead of PTU was administered for the same period in the same manner as described above (FIG. 5).
(§7) Targeting the hypothyroidism animal prepared as above, 500, 250, and 125 mg/kg of the extract from Lonicera caerulea L. car. Edulis fruits (BH) prepared in Example 1-1 were dissolved in sterilized distilled water, respectively, and the capacity of 5 ml/kg was orally administered forcibly once a day for 42 consecutive days, 2 weeks prior to the PTU treatment. On the other hand, LF, an experimental group, was also dissolved in sterilized distilled water, and the capacity of 250 mg/kg was orally administered for the same period in the manner as described above.
(§8) 0.5 mg/kg of LT4 was dissolved in saline solution, and the capacity of 1 ml/kg was intraperitoneally administered once a day for 28 consecutive days since the PTU treatment day in the same manner as described above (Table 6, FIG. 5).
Next, the effects on treating hypothyroidism was confirmed by observing the weight change, thyroid weight change, content change in blood thyroid hormone (TSH, T3, and T4), and histopathological changes in the thyroid (the total thickness of thyroid in which the cells have been cut and average diameter of thyroid follicle) of the rats for each group. […]

[6] = system: PTU-induced hypothyroidism rat; experiment: Change in the thyroid weight, PTU-induced hypothyroidism animal model; conditions: PTU-induced hypothyroidism rats; 0.5 mg/kg intraperitoneally
Protocol: as §5, §6
as §7, with “above. […]” for “above.”

[7] = system: PTU-induced hypothyroidism rat; experiment: Thyroid hormone content in blood, PTU-induced hypothyroidism animal model; conditions: PTU-induced hypothyroidism rats; 0.5 mg/kg intraperitoneally
Protocol: as §5, §6, §7, §8
Next, the effects on treating hypothyroidism was confirmed by observing the weight change, thyroid weight change, content change in blood thyroid hormone (TSH, T3, and T4), and histopathological changes in the thyroid (the total thickness of thyroid in which the cells have been cut and average diameter of thyroid follicle) of the rats for each group.

[8] = system: PTU-induced hypothyroidism rat; experiment: Histopathological observation of thyroid, PTU-induced hypothyroidism animal model; conditions: PTU-induced hypothyroidism rats; 0.5 mg/kg intraperitoneally
Protocol: as §5, §6
as §7, with “above. […]” for “above.”

[9] = system: PTU-induced hypothyroidism rat; experiment: Change in the weight of reproductive organs, PTU-induced hypothyroidism animal model; conditions: PTU-induced hypothyroidism rats; 0.5 mg/kg intraperitoneally
Protocol: as §5, §6, §7, §8

[10] = system: PTU-induced hypothyroidism rat; experiment: Content of sex hormones in serum, PTU-induced hypothyroidism animal model; conditions: PTU-induced hypothyroidism rats; LT4 0.5 mg/kg intraperitoneally
Protocol: as §5, §6, §7, §8

[11] = system: PTU-induced hypothyroidism rat; experiment: Testicular antioxidant defense system, PTU-induced hypothyroidism animal model; conditions: testis, PTU-induced hypothyroidism rats; 0.5 mg/kg intraperitoneally
Protocol: as §5, §6, §7, §8

[12] = system: PTU-induced hypothyroidism rat; experiment: Histopathological observation of reproductive organs, PTU-induced hypothyroidism animal model; conditions: PTU-induced hypothyroidism rats; 0.5 mg/kg intraperitoneally
Protocol: as §5, §6, §7, §8

CCCc1cc(=O)[nH]c(=S)[nH]1 [PTU, 6-n-propyl-2-thiouracil]
Body weight gains during 15 days of PTU and herbal extracts treatment ([1]; 10 mg/kg intraperitoneally): 58.75 ± 15.04^ab
Body weight gains during 27 days of total experiments ([1]; 10 mg/kg intraperitoneally): 113.63 ± 24.49^ab
days after administration from which weight was considerably increased compared to LT4 control ([1]; 10 mg/kg intraperitoneally): 5 days
Body weight gains during 12 days of LT4 pretreatment ([1]; 10 mg/kg intraperitoneally group, period before test substance dosing): 54.50 ± 13.15^d
Absolute organ weights Thyroid gland [2]: 8.88 ± 2.03^h mg
Relative organ weights (% of BW) Thyroid gland [2]: 2.71 ± 0.64^c mg/g of BW
Serum thyroid hormone levels TSH [3]: 1.37 ± 0.24^ac ng/ml
Serum thyroid hormone levels Thyroxine [3]: 71.30 ± 23.13^bc μg/ml
Serum thyroid hormone levels Tri-iodothyronine [3]: 0.80 ± 0.18^ac ng/ml
Thyroid glands Mean follicular epithelium thickness [4]: 14.50 ± 2.84^gh μm/follicle
Thyroid glands Mean follicular thickness [4]: 71.87 ± 12.05^c μm/follicle
Thyroid glands Total thickness [4]: 1628.19 ± 174.84^ac μm/central region

N[C@@H](Cc1cc(I)c(Oc2cc(I)c(O)c(I)c2)c(I)c1)C(=O)O [LT4, Levothyroxine]
Body weight gains during 4 weeks of PTU treatment ([5]; 0.5 mg/kg intraperitoneally): 45.50 ± 14.55^fg
Body weight gains during 6 weeks of total experiments ([5]; 0.5 mg/kg intraperitoneally): 173.00 ± 16.75^ab
Body weight gains during 2 weeks of test material pretreatment ([5]; 0.5 mg/kg intraperitoneally group, period before LT4 and PTU dosing, in g (unit assumed)): 127.50 ± 13.15
Absolute organ weights Thyroid gland [6]: 0.012 ± 0.003^c g
Relative organ weights Thyroid gland [6]: 0.003 ± 0.001^c % of body weights
Serum thyroid hormone levels TSH [7]: 10.74 ± 1.62^bc ng/ml
Serum thyroid hormone levels Thyroxine [7]: 6.75 ± 1.45^e μg/ml
Serum thyroid hormone levels Tri-iodothyronine [7]: 19.24 ± 3.21^a ng/ml
Thyroid gland Mean follicular diameters [8]: 102.24 ± 12.47^ac μm/follicle
Thyroid gland Total thickness [8]: 1542.77 ± 137.07^bc μm/central regions
Absolute organ weights Epididymis [9]: 0.342 ± 0.042^ac g
Absolute organ weights Prostate [9]: 0.492 ± 0.042^ef g
Absolute organ weights Testis [9]: 1.082 ± 0.045^eg
Relative organ weights Epididymis [9]: 0.086 ± 0.012^gi % of body weights
Relative organ weights Prostate [9]: 0.124 ± 0.013^gf % of body weights
Relative organ weights Testis [9]: 0.273 ± 0.021^ac % of body weights
Serum male reproductive hormone levels DHT [10]: 98.00 ± 13.43^ab pg/ml
Serum male reproductive hormone levels FSH [10]: 21.01 ± 1.65^ab ng/ml
Serum male reproductive hormone levels Testosterone [10]: 1.45 ± 0.18^fi ng/ml
Antioxidant defense system Catalase [11]: 8.63 ± 2.13^eg U/mg protein
Antioxidant defense system H2O2 [11]: 80.63 ± 16.27^ab nM/mg protein
Antioxidant defense system SOD [11]: 8.50 ± 2.00^eg U/mg protein
Lipid peroxidation Malondialdehyde [11]: 5.54 ± 0.91 nM/mg protein
Epididymis A/O tubule percentages [12]: 56.00 ± 7.52^df %/mm^2
Epididymis Mean tubular diameters [12]: 217.98 ± 14.97^df μm/tubules of head
Prostate Atrophic tubule percentage [12]: 73.50 ± 10.80^ab %/mm^2
Prostate Mean tubular epithelial thickness [12]: 11.82 ± 2.76^df μm/tubules
Testis Mean semniferous tubule diameters [12]: 195.00 ± 13.29^df μm/tubules
Testis Stage I~II semniferous tubule percentages [12]: 15.63 ± 2.39^df %/mm^2
